Experimental data taken from US20120129764A1 (priority 2009, published 2012).

Experiments:
PA (FluB) = assay type: binding, influenza B virus
PA (FluA) = assay type: binding, influenza A virus

For “MDVNPTLLFLKVPAQ [PB11-15A, reference compound]”, the IC50 (PA (FluB)) was over 3000 nM and the “competition for binding to FluB PA” value (PA (FluB)) was “not FluB PA binding”.
Sequence MDVNPWLLFLKVPAQ [PB11-15AT6W] has an IC50 (PA (FluA)) of 3.4 nM and an IC50 (PA (FluB)) of 628 nM.
“MDVNPCLLFLKVPAQ [PB11-15AT6C, -----C---------]” showed an IC50 (PA (FluA)) of 43.6 nM and an IC50 (PA (FluB)) of over 3000 nM.
“MDVNPTLLFIDVPAQ [PB11-15AL10I,K11D, ---------ID----]” was tested, and the IC50 (PA (FluB)) was over 3000 nM.
With MDVNPYFLFLKVPAQ [PB11-15AT6Y,L7F] the IC50 (PA (FluA)) was 7.51 nM, the “competition for binding to FluA PA” value (PA (FluA)) was “competed for binding to FluA PA” and the IC50 (PA (FluB)) was 345 nM. For the same sequence, the “competition for binding to FluB PA” value (PA (FluB)) was “also to FluB PA, albeit with less affinity than PB11-15B”.
Work on MDVNPFLLFLKVPAQ [PB11-15AT6F] yielded an IC50 (PA (FluA)) of 2.84 nM and an IC50 (PA (FluB)) of 750 nM.
“MNINPTLLFLKVPAQ [PB11-15AD2N,V3I, -NI------------]” was tested, and the IC50 (PA (FluB)) was over 3000 nM.
With MDVNPYLLFLKVPAQ [PB11-15AT6Y] the IC50 (PA (FluA)) was 21.6 nM, the “competition for binding to FluA PA” value (PA (FluA)) was “decreased binding of FluA PA compared to the double mutant, yet binding was still better than with wild type peptide” and the IC50 (PA (FluB)) was 107 nM. The “competition for binding to FluB PA” value (PA (FluB)) was “binding to FluB PA increased”.
With “MNINPTLLFLKVPIQ [PB11-15AD2N,V3I,L14I, -NI----------I-]” the IC50 (PA (FluB)) was over 3000 nM.
“MDVNPHLLFLKVPAQ [PB11-15AT6H, -----H---------]” gave an IC50 (PA (FluB)) of over 3000 nM.
In the case of “MNINPYFLFIDVPIQ [PB11-15B, -NI--YF--ID--I-, reference compound]”, the IC50 (PA (FluA)) is reported as over 3000 nM, the “competition for binding to FluA PA” value (PA (FluA)) is reported as “not FluA PA binding” and the IC50 (PA (FluB)) is reported as 45 nM. The “competition for binding to FluB PA” value (PA (FluB)) was “blocked FluB PA”.
“MDVNPTFLFLKVPAQ [PB11-15AL7F, ------F--------]” was tested, and the IC50 (PA (FluB)) was over 3000 nM.
